According to PubChem BioAssay AID2060489 (Molecular Pharmacology Branch, DTP, NCI, 2025):

Test system: 922993-354-T-J3-PDC complex spheroids, viability
Experiment: Anticancer human tumor 922993-354-T-J3-PDC patient-derived endometrial carcinoma cell line growth inhibition [GQUAD]
Conditions: for IC50: curve of first compound; for viability, T/C: stronger effect = lower value
How it was run: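 Multi-cell-type spheroids of tumor cells with HUVEC and mesenchymal stem cells, treated with drug combinations. Concentrations descend in half-log steps from near clinical Cmax, or from 10 microM where Cmax is unknown; viability read-out.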
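Also: spheroids exposed to compounds for seven days.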
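For viability, T/C in this document: 100% = DMSO vehicle control viability.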

Which results are given for COc1cc(C2c3cc4c(cc3C(OC3OC5COC(C)OC5C(O)C3O)C3COC(=O)C23)OCO4)cc(OC)c1O (configuration not stated) + CN(C)c1ccc(Nc2c3ccc(NC(=O)CCN4CCCC4)cc3nc3cc(NC(=O)CCN4CCCC4)ccc23)cc1?
IC50 (second compound 0.0316 µM): > 10 µM; IC50 (second compound 0.1 µM): 9.49 µM; IC50 (second compound 0.316 µM): 9.2 µM; IC50 (second compound 1 µM): 8.94 µM; IC50 (second compound 3.16 µM): > 10 µM; IC50 (second compound 10 µM): > 10 µM; viability, T/C (second compound 0.0316 µM, first compound 0.0316 µM): 116%; viability, T/C (second compound 0.0316 µM, first compound 0.1 µM): 90%; viability, T/C (second compound 0.0316 µM, first compound 0.316 µM): 90.7%; viability, T/C (second compound 0.0316 µM, first compound 1 µM): 88.1%; viability, T/C (second compound 0.0316 µM, first compound 3.16 µM): 72.5%; viability, T/C (second compound 0.0316 µM, first compound 10 µM): 58.3%; viability, T/C (second compound 0.1 µM, first compound 0.0316 µM): 109%; viability, T/C (second compound 0.1 µM, first compound 0.1 µM): 102%; viability, T/C (second compound 0.1 µM, first compound 0.316 µM): 91.3%; viability, T/C (second compound 0.1 µM, first compound 1 µM): 85.2%; viability, T/C (second compound 0.1 µM, first compound 3.16 µM): 81.1%; viability, T/C (second compound 0.1 µM, first compound 10 µM): 46.3%; viability, T/C (second compound 0.316 µM, first compound 0.0316 µM): 90.6%; viability, T/C (second compound 0.316 µM, first compound 0.1 µM): 101%; viability, T/C (second compound 0.316 µM, first compound 0.316 µM): 83.7%; viability, T/C (second compound 0.316 µM, first compound 1 µM): 79.5%; viability, T/C (second compound 0.316 µM, first compound 3.16 µM): 82.9%; viability, T/C (second compound 0.316 µM, first compound 10 µM): 46.9%; viability, T/C (second compound 1 µM, first compound 0.0316 µM): 79.7%; viability, T/C (second compound 1 µM, first compound 0.1 µM): 79.7%; viability, T/C (second compound 1 µM, first compound 0.316 µM): 105%; viability, T/C (second compound 1 µM, first compound 1 µM): 71.5%; viability, T/C (second compound 1 µM, first compound 3.16 µM): 95.8%; viability, T/C (second compound 1 µM, first compound 10 µM): 46.1%; viability, T/C (second compound 3.16 µM, first compound 0.0316 µM): 109%; viability, T/C (second compound 3.16 µM, first compound 0.1 µM): 99.3%; viability, T/C (second compound 3.16 µM, first compound 0.316 µM): 114%; viability, T/C (second compound 3.16 µM, first compound 1 µM): 98.5%; viability, T/C (second compound 3.16 µM, first compound 3.16 µM): 91.8%; viability, T/C (second compound 3.16 µM, first compound 10 µM): 58.3%; viability, T/C (second compound 10 µM, first compound 0.0316 µM): 94.4%; viability, T/C (second compound 10 µM, first compound 0.1 µM): 106%; viability, T/C (second compound 10 µM, first compound 0.316 µM): 111%; viability, T/C (second compound 10 µM, first compound 1 µM): 79.3%; viability, T/C (second compound 10 µM, first compound 3.16 µM): 106%; viability, T/C (second compound 10 µM, first compound 10 µM): 70.5%
